Consider eight compounds from ChEMBL document CHEMBL3769303, “Discovery of membrane active benzimidazole quinolones-based topoisomerase inhibitors as potential DNA-binding antimicrobial agents” (Eur J Med Chem, 2016).

Each structure is given as a SMILES string. Values after ≈ are worked out from the molar mass of the structure shown.

Type in all cases: functional
The subject of assay [1] is Staphylococcus aureus. In words: Antibacterial activity against methicillin-resistant Staphylococcus aureus N315 by micro broth dilution method. For orientation: In broth dilution the organism is exposed to a series of concentrations in liquid medium.
Assay [2] in a line: Antifungal activity against Candida mycoderma ATCC 9888 after 24 hrs by micro broth dilution method. As to conditions: Candida vini.
The test system of assay [3] is Saccharomyces cerevisiae. As to the kind of experiment: Antifungal activity against Saccharomyces cerevisiae ATCC 9763 after 24 hrs by micro broth dilution method. To be noted: ATCC 9763, 24 h.
Assay [4] has as its system Aspergillus flavus. In words: Antifungal activity against Aspergillus flavus ATCC 204304 after 24 hrs by micro broth dilution method. To be noted: ATCC 204304, 24 h.
The nature of assay [5]: Antibacterial activity against Bacillus proteus ATCC 13315 by micro broth dilution method.
Assay [6] relates to Cyberlindnera jadinii. In words: Antifungal activity against Candida utilis ATCC 9950 after 24 hrs by micro broth dilution method. As to conditions: Williopsis jadinii, ATCC 9950, 24 h.
For assay [7], the system named is Pseudomonas aeruginosa. In words: Antibacterial activity against Pseudomonas aeruginosa ATCC 27853 by micro broth dilution method.
The test system of assay [8] is Candida albicans. In words: Antifungal activity against Candida albicans ATCC 10231 after 24 hrs by micro broth dilution method. As to conditions: ATCC 10231, 24 h.
The test system of assay [9] is Staphylococcus aureus. In words: Antibacterial activity against Staphylococcus aureus ATCC 25923 by micro broth dilution method.
The subject of assay [10] is Micrococcus luteus. In words: Antibacterial activity against Micrococcus luteus ATCC 4698 by micro broth dilution method. To be noted: NCTC 2665.
Assay [11] has as its system Bacillus spizizenii. In words: Antibacterial activity against Bacillus subtilis ATCC 6633 by micro broth dilution method.
Assay [12] deals with Escherichia coli. In words: Antibacterial activity against Escherichia coli DH52 by micro broth dilution method.
The subject of assay [13] is Escherichia coli. As to the kind of experiment: Antibacterial activity against Escherichia coli JM109 by micro broth dilution method.
The subject of assay [14] is Salmonella enterica. In words: Antibacterial activity against Salmonella enterica ATCC 14028 by micro broth dilution method.
Assay [15] relates to Shigella dysenteriae. As to the kind of experiment: Antibacterial activity against Shigella dysenteriae by micro broth dilution method.

One may read the MIC as the lowest concentration found to suppress growth. What is called MIC80 is an inhibitory concentration at the 80% level, which refers to growth in some studies and to a panel of isolates in others. High values mean lower susceptibility, low ones higher susceptibility.

Regarding `CCn1cc(C(=O)O)c(=O)c2cc(F)c(N3CCN(Cc4nc5ccccc5[nH]4)CC3)cc21`, the MIC was 1 mg/L (≈ 2.22 µM) in assay [1]; 0.5 mg/L (≈ 1.11 µM) in assay [5]; 1 mg/L (≈ 2.22 µM) in [7]; 2 mg/L (≈ 4.45 µM) in assay [9]; 1 mg/L (≈ 2.22 µM) in assay [10]; 1 mg/L (≈ 2.22 µM) in assay [11]. Further, the minimum inhibitory concentration (MIC) worked out at 0.5 mg/L (≈ 1.11 µM) in assay [12], 4 mg/L (≈ 8.9 µM) in [13], 0.5 mg/L (≈ 1.11 µM) in assay [14] and 2 mg/L (≈ 4.45 µM) in [15]. Also, the MIC80 in assay [2] turned out to be 1 mg/L (≈ 2.22 µM); in [3], 0.5 mg/L (≈ 1.11 µM); in assay [4] it was 0.5 mg/L (≈ 1.11 µM); in assay [6], 0.5 mg/L (≈ 1.11 µM); in assay [8], 0.5 mg/L (≈ 1.11 µM).
`CCCCCCn1c(CN2CCN(c3cc4c(cc3F)c(=O)c(C(=O)O)cn4C3CC3)CC2)nc2ccccc21`: the MIC in assay [1] worked out at 128 mg/L (≈ 235 µM); in [5], 16 mg/L (≈ 29.3 µM); in assay [7] it was 16 mg/L (≈ 29.3 µM); in [9], 256 mg/L (≈ 469 µM); in assay [10], 32 mg/L (≈ 58.6 µM); in assay [11] it was 16 mg/L (≈ 29.3 µM). The MIC was 16 mg/L (≈ 29.3 µM) in assay [12], 64 mg/L (≈ 117 µM) in [13], 16 mg/L (≈ 29.3 µM) in assay [14] and 64 mg/L (≈ 117 µM) in assay [15]. Further, the MIC80 in assay [2] is 8 mg/L (≈ 14.7 µM); in assay [3], 128 mg/L (≈ 235 µM); in [4], 128 mg/L (≈ 235 µM); in [6] it was 32 mg/L (≈ 58.6 µM); in assay [8] it was 16 mg/L (≈ 29.3 µM).
`O=C(O)c1cn(C2CC2)c2cc(N3CCN(Cc4nc5ccccc5n4Cc4cccc(Cl)c4)CC3)c(F)cc2c1=O`: the MIC in assay [1] is 0.5 mg/L (≈ 0.853 µM); in assay [5] it was 0.5 mg/L (≈ 0.853 µM); in assay [7], 0.125 mg/L (≈ 0.213 µM); in [9] it was 8 mg/L (≈ 13.7 µM); in [10] it was 0.125 mg/L (≈ 0.213 µM); in [11], 4 mg/L (≈ 6.83 µM). Moreover, the MIC in [12] is 0.5 mg/L (≈ 0.853 µM); in assay [13], 4 mg/L (≈ 6.83 µM); in [14], 0.25 mg/L (≈ 0.427 µM); in assay [15] it was 4 mg/L (≈ 6.83 µM). Moreover, the MIC80 in assay [2] turned out to be 0.5 mg/L (≈ 0.853 µM); in [3] it was 0.5 mg/L (≈ 0.853 µM); in [4] it was 0.5 mg/L (≈ 0.853 µM); in [6], 0.25 mg/L (≈ 0.427 µM); in assay [8], 0.125 mg/L (≈ 0.213 µM).
As for `O=C(O)c1cn(C2CC2)c2cc(N3CCN(Cc4nc5ccccc5[nH]4)CC3)c(F)cc2c1=O`, the MIC worked out at 0.125 mg/L (≈ 0.271 µM) in [1]; 0.125 mg/L (≈ 0.271 µM) in [5]; 0.5 mg/L (≈ 1.08 µM) in assay [7]; 0.25 mg/L (≈ 0.542 µM) in assay [9]; 0.125 mg/L (≈ 0.271 µM) in assay [10]; 0.125 mg/L (≈ 0.271 µM) in assay [11]. Besides, the MIC in assay [12] came to 0.125 mg/L (≈ 0.271 µM); in assay [13], 0.5 mg/L (≈ 1.08 µM); in assay [14] it was 0.125 mg/L (≈ 0.271 µM); in assay [15], 1 mg/L (≈ 2.17 µM). The MIC80 was determined as 0.125 mg/L (≈ 0.271 µM) in [2]; 0.0625 mg/L (≈ 0.135 µM) in assay [3]; 0.5 mg/L (≈ 1.08 µM) in [4]; 0.125 mg/L (≈ 0.271 µM) in assay [6]; 0.0625 mg/L (≈ 0.135 µM) in assay [8].
As to `O=C(O)c1cn(C2CC2)c2cc(N3CCN(Cc4nc5ccccc5n4Cc4ccc(F)cc4)CC3)c(F)cc2c1=O`, the MIC in [1] stood at 4 mg/L (≈ 7.02 µM); in [5], 16 mg/L (≈ 28.1 µM); in [7], 8 mg/L (≈ 14 µM); in assay [9], 16 mg/L (≈ 28.1 µM); in assay [10], 16 mg/L (≈ 28.1 µM); in assay [11], 8 mg/L (≈ 14 µM). In addition, the MIC in assay [12] amounted to 32 mg/L (≈ 56.2 µM); in [13], 16 mg/L (≈ 28.1 µM); in [14], 16 mg/L (≈ 28.1 µM); in [15] it was 16 mg/L (≈ 28.1 µM). In addition, the MIC80 in assay [2] amounted to 16 mg/L (≈ 28.1 µM); in assay [3] it was 16 mg/L (≈ 28.1 µM); in [4] it was 8 mg/L (≈ 14 µM); in [6] it was 8 mg/L (≈ 14 µM); in assay [8], 8 mg/L (≈ 14 µM).
For `CCCCCn1c(CN2CCN(c3cc4c(cc3F)c(=O)c(C(=O)O)cn4CC)CC2)nc2ccccc21`, the MIC was 64 mg/L (≈ 123 µM) in assay [1]; 8 mg/L (≈ 15.4 µM) in assay [5]; 64 mg/L (≈ 123 µM) in assay [7]; 512 mg/L (≈ 985 µM) in [9]; 16 mg/L (≈ 30.8 µM) in assay [10]; 32 mg/L (≈ 61.6 µM) in assay [11]. In addition, the MIC is 8 mg/L (≈ 15.4 µM) in [12], 128 mg/L (≈ 246 µM) in assay [13], 256 mg/L (≈ 493 µM) in assay [14] and 128 mg/L (≈ 246 µM) in assay [15]. For the same compound, the MIC80 in assay [2] was determined as 8 mg/L (≈ 15.4 µM); in [3] it was 64 mg/L (≈ 123 µM); in assay [4], 64 mg/L (≈ 123 µM); in assay [6], 32 mg/L (≈ 61.6 µM); in assay [8] it was 4 mg/L (≈ 7.7 µM).
Turning to `O=C(O)c1cn(C2CC2)c2cc(N3CCNCC3)c(F)cc2c1=O` [CIPROFLOXACIN], the minimum inhibitory concentration (MIC) in assay [1] came out at 2 mg/L (≈ 6.04 µM); in assay [5] it was 2 mg/L (≈ 6.04 µM); in assay [7], 1 mg/L (≈ 3.02 µM); in assay [9] it was 0.5 mg/L (≈ 1.51 µM); in assay [10], 2 mg/L (≈ 6.04 µM); in assay [11], 2 mg/L (≈ 6.04 µM). In addition, the MIC was determined as 1 mg/L (≈ 3.02 µM) in assay [14] and 2 mg/L (≈ 6.04 µM) in [15].
For the compound `NC1CCN(c2c(F)cc3c(=O)c(C(=O)O)cn(C4CC4)c3c2Cl)C1` (stereo not drawn) [CLINAFLOXACIN], the MIC amounted to 1 mg/L (≈ 2.73 µM) in assay [1]; 0.5 mg/L (≈ 1.37 µM) in assay [5]; 0.5 mg/L (≈ 1.37 µM) in [7]; 0.5 mg/L (≈ 1.37 µM) in assay [9]; 0.5 mg/L (≈ 1.37 µM) in [10]; 0.5 mg/L (≈ 1.37 µM) in assay [11]. The MIC came out at 0.5 mg/L (≈ 1.37 µM) in [12], 0.5 mg/L (≈ 1.37 µM) in assay [13], 0.25 mg/L (≈ 0.683 µM) in assay [14] and 0.5 mg/L (≈ 1.37 µM) in assay [15].
